Reference: patent US20050112573A1, “Method of detecting toxic substance” (priority 2001, published 2005)

Test system: yeast genes (level of expressed mRNA)
Assay: DNA chip analysis of expressed mRNA of yeast genes after 2 h culture with a toxic chemical substance
Type: cell-based, Saccharomyces cerevisiae S288C
Conditions: for The level of expressed mRNA in the presence of chemical substance/ (ratio to absence of chemical substance): stress protein genes, DNA chip
Description: Yeast (Saccharomyces cerevtisiae S288C (α SUC2mal mel gap2 CUP1)) were cultured at 25° C. on YPD medium (yeast extract 1%, polypepton 2%, glucose 2%). One of toxic chemical substances was added to the cell at logarithmic growth phase, and the cell was further cultured for two hours. Cell was cultured without any chemical substance in the same condition, and was used as control. Concentrations of the chemical substances were defined to inhibit the growth of the yeast but not lead to death.
After the completion of cultivation, the culture was centrifuged to collect the cells. To the cells, sodium acetate buffer (50 mM sodium acetate, 10 mM EDTA, 1% SDS) was added, and the mixture was shaken at 65° C. for five minutes, followed by returning to room temperature, and obtaining the supernatant, which procedure was repeated two times. To the supernatant, ½ amount of a solution of phenol/chloroform was added, and the mixture was centrifuged to give a supernatant, which was added with an equal amount of chloroform, and the mixture was centrifuged to give a supernatant. To the supernatant, an equal amount of isopropanol containing 0.3 M sodium acetate was added, and the mixture was allowed to stand at room temperature for 30 minutes, after which the mixture was centrifuged to give a sediment of the whole RNAs. Seventy % ethanol was added to the sediment, and the mixture was again centrifuged to give a sediment, which was then dried and dissolved in water. mRNA was isolated from the whole RNAs as followings. In view of the fact that a poly A chain is attached to the 3′ terminus of mRNA, a polynucleotide having a poly T structure which was immobilized on the surface of latex beads was used to trap the mRNA, and then the mRNA was washed and eluted with spine column (Oligotex-dT30<Super>mRNA Purification Kit, Takara). Reverse transcription of the mRNA was conducted with a reverse transcriptase (Super Script II Reverse Transcriptase; catalogue No. 18064-014, GibcoBRL) using fluorescence-labeled nucleotides to give cDNAs that were introduced with Cy3-dUTP or Cy5-dUTP during the reverse transcription.
The labeled cDNAs were dissolved in TE buffer (10 mM Tris-HCl/1 mM EDTA, pH8.0), and the solution was dropped on the DNA chip containing the whole genes of yeast (DNA Chip Research Inc. Japan) so that the cDNAs were hybridized on the DNA chip at 65° C. for over 12 hours. The fluoresces intensity of the DNA chip was read with a scanner, and the ratio relative to the fluorescence intensity resulting from the absence of chemical substance was estimated as the following, which is shown in Tables 1 to 9: [formula]
In the Tables, “Intensity” indicated in the rightmost column is a value of the level of expressed mRNA of each gene in control cells as divided by the average level of the expressions of the whole genes.

C=CC=O [(14), acrolein]
The level of expressed mRNA in the presence of chemical substance/The level of expressed mRNA in the absence of chemical substance (yeast gene YIL140W): 0.9
The level of expressed mRNA in the presence of chemical substance/ (in its absence), gene YJL070C (yeast gene YJL070C, ratio of DNA chip fluorescence intensity to that without chemical substance): 1.3
The level of expressed mRNA in the presence of chemical substance/The level of expressed mRNA in the absence of chemical substance (yeast gene YJL073W): 1.1
The level of expressed mRNA in the presence of chemical substance/The level of expressed mRNA in the absence of chemical substance (yeast gene YJL089W): 1.8
The level of expressed mRNA in the presence of chemical substance/ (ratio to absence), gene YJL096W (yeast gene YJL096W, mitochondria-located protein genes, 2 h culture with chemical): 2.1
The level of expressed mRNA in the presence of chemical substance/The level of expressed mRNA in the absence of chemical substance (yeast gene YJL116C): 2.6
The level of expressed mRNA in the presence of chemical substance/ (ratio to absence of chemical substance) (yeast gene YJL158C): 0.5
The level of expressed mRNA in the presence of chemical substance/ (in its absence), gene YJL167W (yeast gene YJL167W, ratio of DNA chip fluorescence intensity to that without chemical substance): 0.9
The level of expressed mRNA in the presence of chemical substance/ (ratio to absence), gene YJL180C (yeast gene YJL180C, mitochondria-located protein genes, 2 h culture with chemical): 1.4
The level of expressed mRNA in the presence of chemical substance/ (in its absence), gene YJL216C (yeast gene YJL216C, ratio of DNA chip fluorescence intensity to that without chemical substance): 1.1
The level of expressed mRNA in the presence of chemical substance/The level of expressed mRNA in the absence of chemical substance (yeast gene YJR004C): 0.7
The level of expressed mRNA in the presence of chemical substance/The level of expressed mRNA in the absence of chemical substance (yeast gene YJR086W): 2.2
The level of expressed mRNA in the presence of chemical substance/ (ratio to absence of chemical substance) (yeast gene YJR090C): 1.0
The level of expressed mRNA in the presence of chemical substance/The level of expressed mRNA in the absence of chemical substance (yeast gene YKL008C): 0.8
The level of expressed mRNA in the presence of chemical substance/The level of expressed mRNA in the absence of chemical substance (yeast gene YKL013C): 1.4
The level of expressed mRNA in the presence of chemical substance/The level of expressed mRNA in the absence of chemical substance (yeast gene YKL039W): 0.8
The level of expressed mRNA in the presence of chemical substance/The level of expressed mRNA in the absence of chemical substance (yeast gene YKL041W): 1.3
The level of expressed mRNA in the presence of chemical substance/The level of expressed mRNA in the absence of chemical substance (yeast gene YKL096W): 0.5
The level of expressed mRNA in the presence of chemical substance/ (ratio to absence of chemical substance) (yeast gene YKL164C): 0.3
The level of expressed mRNA in the presence of chemical substance/The level of expressed mRNA in the absence of chemical substance (yeast gene YKL165C): 0.8
The level of expressed mRNA in the presence of chemical substance/The level of expressed mRNA in the absence of chemical substance (yeast gene YKL193C): 1.2
The level of expressed mRNA in the presence of chemical substance/ (in its absence), gene YKR009C (yeast gene YKR009C, ratio of DNA chip fluorescence intensity to that without chemical substance): 1.0
The level of expressed mRNA in the presence of chemical substance/ (in its absence), gene YKR034W (yeast gene YKR034W, ratio of DNA chip fluorescence intensity to that without chemical substance): 1.1
The level of expressed mRNA in the presence of chemical substance/ (ratio to absence of chemical substance) (yeast gene YKR053C): 1.3
The level of expressed mRNA in the presence of chemical substance/ in its absence, gene YKR058W (yeast gene YKR058W, energy system protein genes, 2 h culture with the chemical, ratio to control without chemical): 1.3
The level of expressed mRNA in the presence of chemical substance/ (in its absence), gene YLR006C (yeast gene YLR006C, ratio of DNA chip fluorescence intensity to that without chemical substance): 1.0
The level of expressed mRNA in the presence of chemical substance/ (ratio to absence of chemical substance) (yeast gene YLR006C): 1.0
The level of expressed mRNA in the presence of chemical substance/The level of expressed mRNA in the absence of chemical substance (yeast gene YLR120C): 0.8
The level of expressed mRNA in the presence of chemical substance/The level of expressed mRNA in the absence of chemical substance (yeast gene YLR136C): 0.7
The level of expressed mRNA in the presence of chemical substance/The level of expressed mRNA in the absence of chemical substance (yeast gene YLR178C): 2.8
The level of expressed mRNA in the presence of chemical substance/The level of expressed mRNA in the absence of chemical substance (yeast gene YLR250W): 2.5
The level of expressed mRNA in the presence of chemical substance/ in its absence, gene YLR295C (yeast gene YLR295C, energy system protein genes, 2 h culture with the chemical, ratio to control without chemical): 1.2
The level of expressed mRNA in the presence of chemical substance/ (ratio to absence), gene YLR295C (yeast gene YLR295C, mitochondria-located protein genes, 2 h culture with chemical): 1.2
The level of expressed mRNA in the presence of chemical substance/The level of expressed mRNA in the absence of chemical substance (yeast gene YLR327C): 1.5
The level of expressed mRNA in the presence of chemical substance/ (in its absence), gene YLR351C (yeast gene YLR351C, ratio of DNA chip fluorescence intensity to that without chemical substance): 1.4
The level of expressed mRNA in the presence of chemical substance/The level of expressed mRNA in the absence of chemical substance (yeast gene YLR356W): 2.2
The level of expressed mRNA in the presence of chemical substance/The level of expressed mRNA in the absence of chemical substance (yeast gene YLR362W): 1.2
The level of expressed mRNA in the presence of chemical substance/ (in its absence), gene YLR375W (yeast gene YLR375W, ratio of DNA chip fluorescence intensity to that without chemical substance): 0.9
The level of expressed mRNA in the presence of chemical substance/The level of expressed mRNA in the absence of chemical substance (yeast gene YLR391W): 0.5
The level of expressed mRNA in the presence of chemical substance/The level of expressed mRNA in the absence of chemical substance (yeast gene YLR429W): 0.7
The level of expressed mRNA in the presence of chemical substance/ in its absence, gene YML129C (yeast gene YML129C, energy system protein genes, 2 h culture with the chemical, ratio to control without chemical): 1.4
The level of expressed mRNA in the presence of chemical substance/ (ratio to absence), gene YML129C (yeast gene YML129C, mitochondria-located protein genes, 2 h culture with chemical): 1.4
The level of expressed mRNA in the presence of chemical substance/The level of expressed mRNA in the absence of chemical substance (yeast gene YMR004W): 2.2
The level of expressed mRNA in the presence of chemical substance/ (ratio to absence), gene YMR023C (yeast gene YMR023C, mitochondria-located protein genes, 2 h culture with chemical): 1.6
The level of expressed mRNA in the presence of chemical substance/The level of expressed mRNA in the absence of chemical substance (yeast gene YMR094W): 2.8
The level of expressed mRNA in the presence of chemical substance/The level of expressed mRNA in the absence of chemical substance (yeast gene YMR104C): 1.1
The level of expressed mRNA in the presence of chemical substance/ (ratio to absence of chemical substance) (yeast gene YMR186W): 0.6
The level of expressed mRNA in the presence of chemical substance/The level of expressed mRNA in the absence of chemical substance (yeast gene YMR219W): 0.5
The level of expressed mRNA in the presence of chemical substance/The level of expressed mRNA in the absence of chemical substance (yeast gene YMR226C): 1.6
The level of expressed mRNA in the presence of chemical substance/ in its absence, gene YMR267W (yeast gene YMR267W, energy system protein genes, 2 h culture with the chemical, ratio to control without chemical): 1.0
The level of expressed mRNA in the presence of chemical substance/ (ratio to absence), gene YMR267W (yeast gene YMR267W, mitochondria-located protein genes, 2 h culture with chemical): 1.0
The level of expressed mRNA in the presence of chemical substance/ in its absence, gene YMR267W (yeast gene YMR267W, ratio of DNA chip fluorescence intensity to that without chemical substance): 1.0
The level of expressed mRNA in the presence of chemical substance/The level of expressed mRNA in the absence of chemical substance (yeast gene YMR275C): 0.8
The level of expressed mRNA in the presence of chemical substance/The level of expressed mRNA in the absence of chemical substance (yeast gene YMR276W): 1.2
The level of expressed mRNA in the presence of chemical substance/ (in its absence), gene YMR278W (yeast gene YMR278W, ratio of DNA chip fluorescence intensity to that without chemical substance): 0.8
The level of expressed mRNA in the presence of chemical substance/ (in its absence), gene YMR293C (yeast gene YMR293C, ratio of DNA chip fluorescence intensity to that without chemical substance): 1.3
The level of expressed mRNA in the presence of chemical substance/The level of expressed mRNA in the absence of chemical substance (yeast gene YMR314W): 1.0
